PubChem BioAssay AID330 (DTP/NCI, 2004)
Where “and” joins values, the source holds several entries; their conditions need not be identical. Equal entries are not always repeated. Toxic doses and inconclusive results are not listed. How the source made its calls: active means survival T/C of 150% or more; inactive means T/C below 125% in these data.

Test system: P388 leukemia ip, CD2F1 mice, survival T/C
Assay: NCI In Vivo Anticancer Drug Screen. Data for tumor model P388 Leukemia (intraperitoneal) in CD2F1 (CDF1) mice
Conditions: endpoint: median survival time, higher = longer survival
Outline: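 Mice carrying the transplanted tumor received test compound or vehicle. Survival was recorded in each group, and the value is the treated-group measurement divided by that of the vehicle-treated control group.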

[1] = dose: 50.0 mg/kg/injection, schedule: Q01DX005 (ip), vehicle: saline with Tween-80
[2] = dose: 100.0 mg/kg/injection, schedule: Q01DX005 (ip), vehicle: saline with Tween-80
[3] = dose: 200.0 mg/kg/injection, schedule: Q01DX005 (ip), vehicle: saline with Tween-80
[4] = dose: 60.0 mg/kg/injection, schedule: Q01DX005 (ip), vehicle: saline with Tween-80
[5] = dose: 120.0 mg/kg/injection, schedule: Q01DX005 (ip), vehicle: saline with Tween-80
[6] = dose: 240.0 mg/kg/injection, schedule: Q01DX005 (ip), vehicle: saline with Tween-80
[7] = dose: 12.5 mg/kg/injection, schedule: Q01DX009 (ip), vehicle: saline with Tween-80
[8] = dose: 25.0 mg/kg/injection, schedule: Q01DX009 (ip), vehicle: saline with Tween-80
[9] = dose: 50.0 mg/kg/injection, schedule: Q01DX009 (ip), vehicle: saline with Tween-80
[10] = dose: 100.0 mg/kg/injection, schedule: Q01DX009 (ip), vehicle: saline with Tween-80
[11] = dose: 60.0 mg/kg/injection, schedule: Q01DX005 (ip), vehicle: saline
[12] = dose: 120.0 mg/kg/injection, schedule: Q01DX005 (ip), vehicle: saline
[13] = dose: 240.0 mg/kg/injection, schedule: Q01DX005 (ip), vehicle: saline
[14] = dose: 100.0 mg/kg/injection, schedule: Q01DX001 (ip), vehicle: saline with Tween-80
[15] = dose: 200.0 mg/kg/injection, schedule: Q01DX001 (ip), vehicle: saline with Tween-80
[16] = dose: 400.0 mg/kg/injection, schedule: Q01DX001 (ip), vehicle: saline with Tween-80

Measured: T/C

Oc1c(Cl)cc(C(c2cc(Cl)c(O)c(Cl)c2)C(c2cc(Cl)c(O)c(Cl)c2)c2cc(Cl)c(O)c(Cl)c2)cc1Cl
inactive: dose: 100.0 mg/kg/injection, schedule: Q04DX003 (ip), vehicle: Klucel (hydroxypropylcellulose) (HPC) 115 % of control

CCN1CCCC(=O)C1
inactive: [1] 96 % of control | [2] 101 % of control | [3] 102 % of control

Cc1nc2n(c1/C=N/O)CCS2
inactive: dose: 50.0 mg/kg/injection, schedule: Q01DX001 (ip), vehicle: Klucel (hydroxypropylcellulose) (HPC) 90 % of control | dose: 100.0 mg/kg/injection, schedule: Q01DX001 (ip), vehicle: Klucel (hydroxypropylcellulose) (HPC) 99 % of control | dose: 200.0 mg/kg/injection, schedule: Q01DX001 (ip), vehicle: Klucel (hydroxypropylcellulose) (HPC) 93 % of control

CNC(=O)NNC(=O)c1ccccc1Cl
inactive: [4] 106 % of control | [5] 101 % of control | [6] 103 % of control

O=C1c2cscc2C(=O)c2cscc21
inactive: [7] 98 % of control | [8] 100 % of control | [9] 96 % of control | [10] 94 % of control

CC(=O)c1c(C)n(-c2ccccc2)c2c1[nH]c1ccccc12
inactive: dose: 3.75 mg/kg/injection, schedule: Q01DX005 (ip), vehicle: Klucel (hydroxypropylcellulose) (HPC) 94 % of control | dose: 7.5 mg/kg/injection, schedule: Q01DX005 (ip), vehicle: Klucel (hydroxypropylcellulose) (HPC) 92 % of control | dose: 15.0 mg/kg/injection, schedule: Q01DX005 (ip), vehicle: Klucel (hydroxypropylcellulose) (HPC) 86 % of control and 93 % of control | dose: 60.0 mg/kg/injection, schedule: Q01DX005 (ip), vehicle: Klucel (hydroxypropylcellulose) (HPC) 93 % of control | dose: 240.0 mg/kg/injection, schedule: Q01DX005 (ip), vehicle: Klucel (hydroxypropylcellulose) (HPC) 92 % of control

CC(=O)CC1(O)CCCC1
inactive: [11] 98 % of control | [12] 105 % of control | [13] 100 % of control

Cc1cnc2c(c1)CCCC2C(N)=S (stereo unspecified)
inactive: dose: 50.0 mg/kg/injection, schedule: Q01DX009 (ip), vehicle: saline 99 % of control | dose: 100.0 mg/kg/injection, schedule: Q01DX009 (ip), vehicle: saline 95 % of control | dose: 200.0 mg/kg/injection, schedule: Q01DX009 (ip), vehicle: saline 107 % of control

O=C1C[C@@H]2OC3=C(C(=O)CCC3)[C@@H]2O1
inactive: [11] 102 % of control | [12] 121 % of control | [13] 119 % of control

COc1ccc2c3c(cccc13)-c1ccccc1C2=O
inactive: dose: 6.25 mg/kg/injection, schedule: Q01DX005 (ip), vehicle: saline with Tween-80 95 % of control | dose: 12.5 mg/kg/injection, schedule: Q01DX005 (ip), vehicle: saline with Tween-80 91 % of control | dose: 25.0 mg/kg/injection, schedule: Q01DX005 (ip), vehicle: saline with Tween-80 93 % of control

Nc1nc(-c2ccccn2)cc2ccccc12
inactive: [4] 105 % of control | [5] 100 % of control

Nc1cc2c3cccnc3ccc2c2ncccc12
inactive: [14] 94 % of control | [15] 89 % of control | [16] 95 % of control

CC(=O)[C@]1(O)Cc2c(O)c3c(c(O)c2[C@@H](OC2CC(N)C(O)C(C)O2)C1)C(=O)c1c(OCc2ccccc2)cccc1C3=O (stereo partly specified)
inactive: dose: 12.5 mg/kg/injection, schedule: Q04DX003 (ip), vehicle: distilled water + Tween-80 101 % of control | dose: 100.0 mg/kg/injection, schedule: Q04DX003 (ip), vehicle: distilled water + Tween-80 91 % of control

CCc1cccc(NC(=O)Sc2ccc(O)cc2)c1
inactive: [9] 108 % of control | [10] 106 % of control

CC(CCC(=O)O)(c1ccc(O)cc1)c1ccc(O)cc1
inactive: dose: 100.0 mg/kg/injection, schedule: Q04DX003 (ip), vehicle: other 95 % of control | dose: 200.0 mg/kg/injection, schedule: Q04DX003 (ip), vehicle: other 95 % of control | dose: 400.0 mg/kg/injection, schedule: Q04DX003 (ip), vehicle: other 90 % of control

O=C1CC23CCCN2CCc2cc4c(cc2C3=C1O)OCO4 (stereo unspecified)
inactive: dose: 1.56 mg/kg/injection, schedule: Q01DX009 (ip), vehicle: water 98 % of control | dose: 3.13 mg/kg/injection, schedule: Q01DX009 (ip), vehicle: water 104 % of control | dose: 6.25 mg/kg/injection, schedule: Q01DX009 (ip), vehicle: water 98 % of control | dose: 12.5 mg/kg/injection, schedule: Q01DX009 (ip), vehicle: water 92 % of control | dose: 25.0 mg/kg/injection, schedule: Q01DX009 (ip), vehicle: water 88 % of control

Clc1ccc2nc(CBr)cnc2c1
inactive: dose: 6.25 mg/kg/injection, schedule: Q01DX009 (ip), vehicle: saline with Tween-80 104 % of control | [7] 104 % of control | [8] 100 % of control

Cn1ncc(=O)[nH]c1=O
inactive: dose: 50.0 mg/kg/injection, schedule: Q01DX005 (ip), vehicle: Klucel (hydroxypropylcellulose) (HPC) 103 % of control | dose: 100.0 mg/kg/injection, schedule: Q01DX005 (ip), vehicle: Klucel (hydroxypropylcellulose) (HPC) 98 % of control | dose: 200.0 mg/kg/injection, schedule: Q01DX005 (ip), vehicle: Klucel (hydroxypropylcellulose) (HPC) 103 % of control

CC(=O)NC(=O)Cc1ccccc1
inactive: dose: 100.0 mg/kg/injection, schedule: Q04DX002 (ip), vehicle: Klucel (hydroxypropylcellulose) (HPC) 94 % of control | dose: 200.0 mg/kg/injection, schedule: Q04DX002 (ip), vehicle: Klucel (hydroxypropylcellulose) (HPC) 95 % of control | dose: 400.0 mg/kg/injection, schedule: Q04DX002 (ip), vehicle: Klucel (hydroxypropylcellulose) (HPC) 97 % of control

Nc1ccc(-c2ccc3ccccc3n2)cc1
inactive: dose: 3.13 mg/kg/injection, schedule: Q01DX009 (ip), vehicle: Klucel (hydroxypropylcellulose) (HPC) 103 % of control | dose: 6.25 mg/kg/injection, schedule: Q01DX009 (ip), vehicle: Klucel (hydroxypropylcellulose) (HPC) 101 % of control | dose: 12.5 mg/kg/injection, schedule: Q01DX009 (ip), vehicle: Klucel (hydroxypropylcellulose) (HPC) 106 % of control | dose: 25.0 mg/kg/injection, schedule: Q01DX009 (ip), vehicle: Klucel (hydroxypropylcellulose) (HPC) 88 % of control

NC(Cc1ccccc1F)c1nn[nH]n1 (stereo unspecified)
inactive: [8] 108 % of control | [9] 97 % of control | [10] 99 % of control

CC1=Nc2ccccc2SC2(C1)C(C1COC(C)(C)O1)OC1OC(C)(C)OC12 (stereo unspecified)
inactive: [1] 93 % of control | [2] 94 % of control | [3] 92 % of control

C[N+](C)(C)CCCCC[N+](C)(C)C
inactive: dose: 6.25 mg/kg/injection, schedule: Q01DX009 (ip), vehicle: saline 110 % of control | dose: 12.5 mg/kg/injection, schedule: Q01DX009 (ip), vehicle: saline 110 % of control | [8] 100 % of control | dose: 25.0 mg/kg/injection, schedule: Q01DX009 (ip), vehicle: saline 110 % of control | [9] 104 % of control | [10] 100 % of control

CN1CCc2cc3c(cc2C1O)OCO3 (stereo unspecified)
inactive: [1] 100 % of control | [2] 110 % of control

Cc1cc(=O)oc2c(C)c3occc(=O)c3cc12
inactive: [14] 99 % of control | [15] 90 % of control | [16] 87 % of control

O=C(/C=C/c1c[nH]c2ccccc12)c1cccc([N+](=O)[O-])c1
inactive: [4] 97 % of control | [5] 94 % of control | [6] 92 % of control
